Molecules are shown by their SMILES. Entries after “also recorded” stand apart in the source; their conditions may differ.

Data set [1] has as its system drug-sensitive and drug-resistant gastric and breast cancer cell lines. In words: Cytotoxicity of the MDR modulators alone (SRB proliferation assay). As to conditions: for growth inhibitory effect / cytotoxic side effects: 10 µM TPS-A alone, any of the drug-sensitive or drug-resistant cancer cell lines tested. In kind it is cell-based, human. The procedure:
(§1) Modulation of chemoresistance was tested using a proliferation assay based on sulforhodamine B (SRB), a protein-binding reagent (Skehan P et al., J Natl Cancer Inst 1990;82:1107-12), as described in Lage H et al., Int J Hyperthermia 2000;16:291-303; Lage H et al., FEBS Lett 2001;503:179-84; Lage H et al., FEBS Lett 2001;494:54-9. In each experiment, 350 cells per well were seeded in the presence or absence of TPS-A in 96-well plates in complete medium and allowed to attach overnight. Mitoxantrone or daunorubicin were added in a dilution series in triplicate wells. After 5 days, when unselected wells were still subconfluent, incubation was terminated by replacing the medium with 10 % trichloroacetic acid, followed by incubation at 4 °C for 1 h. After samples were washed 5 times with water and air-dried, 50 µl 0.4 % SRB (Sigma, St. Louis, MO) in 1 % acetic acid was added and samples were incubated for 10 min at room temperature. Unbound dye was eliminated by washing the plates 5 times with 1 % acetic acid. After air-drying and re-solubilisation of the protein-bound dye in 10 mM Tris-HCl (pH 8.0), absorbance was quantified at 562.5 nm. To determine the IC50-value, the absorbance difference of control cells without drug was set to be 100 %. Linear regression of data was done for the linear part of the curve, and IC50-values were calculated from multiple, at least three independent experiments for each cell line.
The cytotoxicity of the MDR modulators TPS-A and GF120918 on drug-sensitive and drug-resistant gastric and breast cancer cell lines was initially assessed.

In data set [2] the test system is gastric and breast carcinoma cell variants. Briefly: Modulation of chemoresistance to mitoxantrone or daunorubicin (SRB proliferation assay, IC50/DMF). The data set is classed as cell-based, human. The procedure: as §1
The cellular sensitivity to mitoxantrone and daunorubicin was assessed by determining the IC50 values without or with increasing concentrations of TPS-A or GF120918 as a positive control in the different cancer cell variants. Table 1 presents the data of TPS-A reversal of mitoxantrone and daunorubicin resistance in different gastric and breast carcinoma cell variants, respectively. […] In each case, the equation DMF=(IC50 (-CS))/(IC50 (+CS)) [formula] was used to calculate the dose modifying factor (DMF), comparing the IC50 values in the presence (+CS) or absence (-CS) of the corresponding chemosensitizer (CS) TPS-A or GF120918.
(In general: Sulforhodamine B stains cellular protein and so reports cell mass.)

Data set [3] has as its system BCRP-positive, atypical MDR gastric carcinoma cell line EPG85-257RNOV. Briefly: Mitoxantrone accumulation assay (flow cytometry). In kind it is cell-based, human. As to conditions: 10 µM TPS-A; mitoxantrone 60 min at 37 °C (Fig 4A). The procedure: (§2) Cellular mitoxantrone accumulation was determined according to the procedure described in Lage H et al., FEBS Lett 2001;503:179-84. Briefly, 4 x 10^5 cells were seeded out in 6-well plates 78 hours prior to the experiment. Incubation with mitoxantrone (0, 1,5 and 10 µg/ml) was performed for 60 minutes at 37°C and 70-80 % cellular confluence. For kinetics of intracellular enrichment of mitoxantrone, cells were exposed to 10 µg/ml mitoxantrone for 0, 5, 10 and 60 min. Cells were washed with ice-cold PBS, trypsinized and resuspended in 4 °C PBS at a concentration of 4 x 10^5 cells/ml. Intracellular fluorescence of mitoxantrone was determined by flow cytometry (Becton-Dickinson, San Jose, CA). The cells were excited at 480 nm and emission was measured at 630 nm. A minimum of 10^4 cells was analyzed for each sample. All assays were performed at least in three independent experiments, each time with triplicate wells.
(§3) To provide confirmation that the observed resensitization to mitoxantrone of BCRP-overexpressing cells was indeed the result of BCRP inhibition by TPS-A, a mitoxantrone accumulation assay was performed. The known so-called "multispecific" MDR modulator GF120918, inhibiting P-gp- and BCRP activity, was used as a positive control for P-gp- and BCRP antagonism.

The subject of data set [4] is BCRP-transfected cell variant MCF-7/BCRP clone 8. In words: Mitoxantrone accumulation assay (flow cytometry). Particulars: 50 µM TPS-A; compared to drug accumulation level in the untreated, parental control cell line (Fig 4B). In kind it is cell-based, human. Here is the method: as §2, §3
On the technique in general: Flow cytometry measures light scatter and fluorescence of single cells or particles in a stream.

The next data set deals with MCF-7/AdrVp. Briefly: Mitoxantrone accumulation assay (flow cytometry). Particulars: 50 µM TPS-A. The data set is classed as cell-based, human. The procedure: as §2, §3
The subject of data set [5] is P-gp-expressing, classical MDR variant EPG85-257RDB. Briefly: Mitoxantrone accumulation assay (flow cytometry). The data set is classed as cell-based, human. As to conditions: TPS-A (Fig 4A). Here is the method: as §2, §3
Data set [6] has as its system drug-sensitive, parental cell line MCF-7. In words: Mitoxantrone accumulation assay (flow cytometry). The data set is classed as cell-based, human. As to conditions: increasing modulator concentrations. The procedure: as §2, §3
Data set [7] relates to parental, drug-sensitive gastric carcinoma cell variant EPG85-257P. In words: Mitoxantrone accumulation assay (flow cytometry). In kind it is cell-based, human. Particulars: TPS-A (Fig 4A). The procedure: as §2, §3
Data set [8] concerns BCRP overexpressing cells (EPG85-257RNOV). Briefly: Annexin assay: FITC-Annexin V binding, exposure of endogenous PS (flow cytometry). The data set is classed as cell-based, human. Particulars: preincubation with 5 µM Tryprostatin A for 30 min at 37°C (Fig. 9, 10). Here is the method: (§4) To measure exposure of endogenous PS on the cell surface, cells were incubated on ice for 10 minutes in the dark with 9 nM FITC-Annexin V in binding buffer. Two minutes prior to the end of the incubation, propidium iodide (final 1.9 µM) was added. Cells were then washed three times, detached from the dishes through pipetting, and suspended in binding buffer. Measurement was performed with a FACSCalibur flow cytometer (Becton Dickinson, St. Louis, MO) 5 minutes after the end of incubation. Regions were set to exclude subcellular particles, and only single cells were counted (10 000 cells / sample). A further gate excluded damaged cells with elevated propidium iodide staining. Data were analyzed by Becton Dickinson CellQuest software.

Data set [9] has as its system control cells (EPG85-257P). The data set is described as above. The data set is classed as cell-based, human. Particulars: treatment with Tryprostatin A (data not shown). Here is the method:
as §4

The test system of data set [10] is microtubule-associated protein (MAP)-dependent microtubule assembly. Particulars: literature (Usui T et al., Biochem J 1998); cited from earlier work.

Turning to `COc1ccc2c(C[C@@H]3NC(=O)[C@@H]4CCCN4C3=O)c(CC=C(C)C)[nH]c2c1` [TPS-A, tryprostatin A], the “growth inhibitory effect / cytotoxic side effects” value in data set [1] is on record as “no growth inhibitory effect”; in data set [1] (listed as tryprostatin A), “without showing any cytotoxic side effects”. Besides, the cytotoxicity result in data set [1] (TPS-A concentration range 1-100 µM) is reported as “does not show any cytotoxicity”. Besides, the “cross-resistance to the MDR modulator” value in data set [1] (multidrug-resistant tumor cell lines) is listed as “No evidence of cross-resistance”. Besides, the “sensitization to treatment with mitoxantrone” value in data set [2] (TPS-A, BCRP-expressing gastric and breast cancer cells (Table 1, Figure 2A)) is given as “dose-depending sensitization”. Further, the “effect on sensitivity to daunorubicin” value in data set [2] (increasing concentrations of TPS-A, drug-sensitive, P-gp- or BCRP-expressing carcinoma cells (Table 1, Figure 2B)) was “No significant effect”. For the same compound, the “increase to % of the mitoxantrone accumulation level of untreated drug-sensitive cells” value in [3] is 40%. Moreover, the “inhibition of the mitoxantrone pump activity” value in data set [4] is given as “completely”. In addition, the “increase of drug accumulation with respect to control cells” value in the data set on MCF-7/AdrVp is on record as 45%. Moreover, the “drug transporter inhibiting effect (mitoxantrone accumulation)” value in [5] was “No significant drug transporter inhibiting effect”. Further, the “effect on drug accumulation” value in data set [6] was “only a weak dosage-depending effect”. Also, the mitoxantrone accumulation result in data set [7] was “slightly increased mitoxantrone accumulation”. Moreover, in [8], the “level of Annexin V binding” value is given as “reduced the level of Annexin V binding to that of control cells; also recorded: reduced to the level found for control cells”. The “Annexin V binding” value in [9] is “not affected”. Besides, in data set [10], the “final concentration inhibiting MAP-dependent microtubule assembly / cell cycle progression at the M phase” value is reported as 250 µM.

The values are drawn from EP1464336A1, “Use of tryprostatin A for the reversal of cancer drug resistance” (Humboldt-Universität zu Berlin, priority 2003, dated 2004).
